# Source: US20130137856A1, “PROTEIN BINDING DOMAINS STABILIZING FUNCTIONAL CONFORMATIONAL STATES OF GPCRS AND USES THEREOF” (priority 2010, published 2013)
# Structures can show the parent of a compound that is named as a salt. Where two headings read alike, the source gives them in different places.
# Columns and labels:
# β2AR [1] = target: T1, β2AR (Homo sapiens, UniProt P07550); assay: Competition radioligand binding on commercial insect cell membranes with full-length human β2AR, Nb80 versus irrelevant Nb
# β2AR-T4L = target: T2, β2AR-T4L (Homo sapiens, UniProt P07550, DEL231-262, form not given); assay: [3H]-DHA saturation binding on β2AR-T4L reconstituted in HDL particles; conditions: read-out: [3H]-DHA saturation binding Kd ± S.E.
# T2 construct: The β2AR and β2AR-T4L (both truncated at position 365) purified as previously described (Rosenbaum et al. 2007); fused on or other part: T4 lysozyme (in the cited construct residues 2-161, C54T/C97A) inserted in place of the third intracellular loop as a crystallisation aid
# Experimental: (§1) The effect of Nb80 and Gs on the receptors affinity for agonists was compared in competition binding experiments. The β2AR and β2AR-[…] (both […]) purified as previously described (Rosenbaum et al. 2007; […] GTPγS was used at 10 μM. […] Bound ^3H-DHA was separated from unbound on a Brandel harvester by passing over a Whatman GF/B filter (presoaked in TBS with 0.3% polyethylenimine) and washed in cold TBS. Radioligand binding was measured in a Beckman LS6000 scintillation counter. Ligand binding affinity (Kd) of DHA was determined from saturation binding curves using GraphPad Prism software.
# β2AR [2] = target: T1, β2AR; assay: [3H]-DHA saturation binding on β2AR reconstituted in HDL particles; parameters: recombinant β2AR truncated at Gly365 (β2AR-365); made in house; host or cells: Sf9 insect cells (membranes); conditions: read-out: [3H]-DHA saturation binding Kd ± S.E.
# Experimental: as §1
# [3] = 500 nM Nb80 or irrelevant Nb, 2 nM 3H-DHA radioligand
Compound,Potency shift (ratio of IC50 with irrelevant Nb to IC50 with Nb80) (β2AR [1]; [3]),also measured
"CC(CCc1ccc(O)cc1)NCCc1ccc(O)c(O)c1 (stereo not shown) [dobutamine, dobutamine hydrochloride]",2.3,–
"CC(NCCc1ccc(O)cc1)C(O)c1ccc(O)cc1 (stereo not shown) [ritodrine, ritodrine hydrochloride]",2.7,–
metaproterenol hemisulfate salt,–,Potency shift (ratio of IC50 with irrelevant Nb to IC50 with Nb80) (β2AR [1]): 2.9
"CC(Cc1ccc(O)cc1)NCC(O)c1cc(O)cc(O)c1 (stereo not shown) [fenoterol, fenoterol hydrobromide]",3.7,–
"CCC(NC(C)C)C(O)c1ccc(O)c2[nH]c(=O)ccc12 (stereo not shown) [procaterol, procaterol hydrochloride]",2.3,–
"CCCc1ccccc1OCC(O)CNC(C)C (stereo not shown) [[^3H]-DNA, [^3H]-dihydroalprenolol]",–,Kd (β2AR-T4L): 0.42 ± 0.01 nM; Kd (β2AR [2]): 0.55 ± 0.09 nM
